Key:
[1] = test system: TXB2; experiment: Serum TXB2 levels ex vivo after oral or i.v. administration to rats; type: in vivo; conditions: rat
Method: The blood was allowed to clot in glass tubes for 1 hour at 37° C. Serum was collected after sedimentation of the clot by centrifugation at 2000×g for 15 minutes in a Beckman table top centrifuge. The levels of TXB2 were measured in the serum by radioimmunoassay.

[2] = test system: 6-keto-PGF1a (prostacyclin generation); experiment: Serum 6-keto-PGF1a (prostacyclin generation) by radioimmunoassay in human whole blood; type: cell-based; conditions: for Serum 6-keto-PGF1a: vehicle 2.43
Method: (§1) The test compounds were dissolved in dimethylsulfoxide. The compound solutions were incubated with fresh whole human blood, that had been anticoagulated with 0.38% trisodium citrate, for 30 minutes at 37° C. After 30 minutes, 0.025 ml of 0.5M calcium chloride solution was added to each 1 ml of blood and further incubated for one hour at 37° C. Serum was prepared by centrifugation of the blood at 2000×g for 15 minutes in a Beckman table top centrifuge. Serum TXB2 and 6-keto-PGF1a, the stable metabolites of and markers of synthesis of TXA2 and prostacyclin respectively, were measured by radioimmunoassay by commonly used test methods (see, Refs.,1 & 2 below). Results from the radioimmunoassay of TXB2 were used to calculate the IC50 (concentration of compound required to reduce thromboxane generation to 50% of that obtained with vehicle alone).
Data determined from the radioimmunoassay of 6-keto-PGF1a (reflecting prostacyclin generation) allowed a determination of the specificity of the compound of example 1 for the inhibition of thromboxane synthase as indicated by increased levels of 6-keto-PGF1a relative to the less specific inhibition of cyclooxygenase by aspirin.

[3] = target: T1, thromboxane synthase (Homo sapiens, UniProt P24557); experiment: Thromboxane Synthase Inhibition (TSI) Test, serum TXB2 by radioimmunoassay in human whole blood; type: cell-based; conditions: fresh whole human blood, 30 min at 37° C., then CaCl2 1 hour; TXB2 RIA; read-out: IC50 (concentration of compound required to reduce thromboxane generation to 50% of that obtained with vehicle alone)
T1 construct: incubated with fresh whole human blood, that had been anticoagulated with 0.38% trisodium citrate; from tissue; host or cells: fresh whole human blood (citrated, recalcified to clot)
T1 sequence (P24557 1-533): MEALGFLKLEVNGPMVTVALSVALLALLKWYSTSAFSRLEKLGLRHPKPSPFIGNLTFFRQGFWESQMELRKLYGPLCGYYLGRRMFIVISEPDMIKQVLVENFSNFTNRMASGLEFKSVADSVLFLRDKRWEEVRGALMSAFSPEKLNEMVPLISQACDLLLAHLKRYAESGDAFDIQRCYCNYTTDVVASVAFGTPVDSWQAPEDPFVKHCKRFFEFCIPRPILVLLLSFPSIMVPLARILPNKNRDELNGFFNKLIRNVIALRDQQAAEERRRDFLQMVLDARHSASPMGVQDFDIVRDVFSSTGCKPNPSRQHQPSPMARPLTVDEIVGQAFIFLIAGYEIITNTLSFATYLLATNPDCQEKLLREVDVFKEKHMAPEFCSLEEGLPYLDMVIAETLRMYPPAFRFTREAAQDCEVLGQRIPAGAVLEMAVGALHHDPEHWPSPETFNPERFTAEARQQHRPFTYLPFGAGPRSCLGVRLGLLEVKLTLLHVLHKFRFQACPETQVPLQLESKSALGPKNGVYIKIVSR
Method: as §1, with “The ability of the compounds of the present invention to be an effective thromboxane synthase inhibitors were evaluated in the following Thromboxane Synthase Inhibition (TSI) Assay with the results shown in Table 2 below: The test” for “The test”

[4] = test system: 6-keto-PGF1a (prostacyclin generation); conditions: stated as well known; result in words; cited from earlier work

O=C(O)CCCCCn1c2ccccc2c2ccncc21 [Example 1, 9H-Pyrido(3,4-β)indole-9-hexanoic acid]
Serum TXB2 (% control) ([1]; i.v., 0.01 mg/kg, 15 minutes): 69 % control
Serum TXB2 (% control) ([1]; i.v., 0.1 mg/kg, 15 minutes): 14 % control
Serum TXB2 (% control) ([1]; i.v., 1 mg/kg, 15 minutes): 4 % control
availability by oral and i.v. routes ([1]; inferred from decreased serum TXB2, result in words): availability of the compounds by both oral and i.v. routes
Serum TXB2 (% control) ([1]; oral, 0.1 mg/kg, one hour): 54 % control
Serum TXB2 (% control) ([1]; oral, 1 mg/kg, one hour): 16 % control
Serum TXB2 (% control) ([1]; oral, 10 mg/kg, one hour): 2 % control
Serum TXB2 (% control) ([1]; oral, 100 mg/kg, one hour): 1 % control
Serum 6-keto-PGF1a ([2]; 0.001 μM): 3.01 ng/mL
Serum 6-keto-PGF1a ([2]; 0.01 μM): 5.09 ng/mL
Serum 6-keto-PGF1a ([2]; 0.1 μM): 7.07 ng/mL
Serum 6-keto-PGF1a ([2]; 1 μM): 7.71 ng/mL
Serum 6-keto-PGF1a ([2]; 10 μM): 7.82 ng/mL
effect on human serum 6-keto-PGF1a levels ([2]; human serum, result in words): dose-dependent stimulatory effect
IC50 [3]: 53 nM

O=C(O)CCCCCn1c2ccc(Br)cc2c2ccncc21 [Example 5, 6-Bromo-9H-pyrido(3,4-β)indole-9-hexanoic acid]
IC50 [3]: 68 nM

CC(=O)Oc1ccccc1C(=O)O [Aspirin]
generation of 6-keto-PGF1a [4]: completely inhibit

O=C(O)CCCCCCn1c2ccccc2c2ccncc21 [Example 4]
IC50 [3]: 210 nM

O=C(O)CCCCn1c2ccccc2c2ccncc21 [Example 3, 9H-Pyrido (3,4-β)indole-9-pentanoic acid]
IC50 [3]: 100 nM

O=C(O)CCCCCn1c2ccc([N+](=O)[O-])cc2c2ccncc21 [Example 8, 6-Nitro-9H-pyrido(3,4-β)indole-9-hexanoic acid]
IC50 [3]: 91 nM

Cc1ccc2c(c1)c1ccncc1n2CCCCCC(=O)O [Example 6, 6-Methyl-9H-pyrido(3,4-β)indole-9-hexanoic acid]
IC50 [3]: 31 nM

O=C(O)CCCn1c2ccccc2c2ccncc21 [Example 2, 9H-Pyrido (3,4-β)indole-9-butanoic acid]
IC50 [3]: 19000 nM

COc1ccc2c(c1)c1ccncc1n2CCCCCC(=O)O [Example 7, 6-Methoxy-9H-pyrido(3,4-β)indole-9-hexanoic acid]
IC50 [3]: 49 nM
